Measured values as given in ChEMBL document CHEMBL3739403 (Bioorg Med Chem, 2016).
pIC50: −log10 of the molar value.

Target: T1, Prothrombin (Homo sapiens, UniProt P00734)
Assay: Inhibition of thrombin (unknown origin)
Details: not given

| Structure (SMILES) | pIC50 |
| --- | --- |
| CCn1c(CNc2ccc(C(=N)N)cc2)nc2cc(C(=O)N(CCC(=O)O)c3ccccc3C(F)(F)F)ccc21 | 8.21 |
| CCCCn1c(CNc2ccc(C(=N)N)cc2F)nc2cc(C(=O)N(CCC(=O)O)c3ccc(F)c(Cl)c3)ccc21 | 7.44 |
| CC(C)n1c(CNc2ccc(C(=N)N)cc2)nc2cc(C(=O)N(CCC(=O)O)c3ccc(F)c(Cl)c3)ccc21 | 7.73 |
| Cn1c(CNc2ccc(C(=N)N)cc2)nc2cc(C(=O)N(CCC(=O)O)c3cccc(C(F)(F)F)c3)ccc21 | 7.91 |
| CCn1c(CNc2ccc(C(=N)N)cc2)nc2cc(C(=O)N(CCC(=O)O)c3cccc(C(F)(F)F)c3)ccc21 | 7.58 |
| CCCCn1c(CNc2ccc(C(=N)N)cc2)nc2cc(C(=O)N(CCC(=O)O)c3ccc(F)c(Cl)c3)ccc21 | 7.40 |
| N=C(N)c1ccc(NCc2nc3cc(C(=O)N(CCC(=O)O)c4ccc(F)c(Cl)c4)ccc3n2C2CC2)cc1 | 7.56 |
| CCn1c(CNc2ccc(C(=N)N)cc2)nc2cc(C(=O)N(CCC(=O)O)c3cc(F)cc(F)c3)ccc21 | 8.10 |
| Cn1c(CNc2ccc(C(=N)N)cc2F)nc2cc(C(=O)N(CCC(=O)O)c3ccc(F)c(Cl)c3)ccc21 | 7.94 |
| CCn1c(CNc2ccc(C(=N)N)cc2)nc2cc(C(=O)N(CCC(=O)O)c3ccccc3F)ccc21 | 8.45 |
| Cn1c(CNc2ccc(C(=N)N)cc2)nc2cc(C(=O)N(CCC(=O)O)c3cccc(F)c3)ccc21 | 8.27 |
| CCCn1c(CNc2ccc(C(=N)N)cc2)nc2cc(C(=O)N(CCC(=O)O)c3ccc(F)c(Cl)c3)ccc21 | 7.96 |
| Cc1ccnc(N(CCC(=O)O)C(=O)c2ccc3c(c2)nc(CNc2ccc(C(=N)N)cc2F)n3C)c1 | 7.62 |
| CCCCCn1c(CNc2ccc(C(=N)N)cc2)nc2cc(C(=O)N(CCC(=O)O)c3ccc(F)c(Cl)c3)ccc21 | 6.93 |
| CCn1c(CNc2ccc(C(=N)N)cc2)nc2cc(C(=O)N(CCC(=O)O)c3ccc(F)c(F)c3)ccc21 | 8.02 |
| CC(C)n1c(CNc2ccc(C(=N)N)cc2F)nc2cc(C(=O)N(CCC(=O)O)c3ccc(F)c(Cl)c3)ccc21 | 7.76 |
| N=C(N)c1ccc(NCc2nc3cc(C(=O)N(CCC(=O)O)c4ccc(F)c(Cl)c4)ccc3n2C2CC2)c(F)c1 | 7.57 |
| CCn1c(CNc2ccc(C(=N)N)cc2)nc2cc(C(=O)N(CCC(=O)O)c3ccc(F)cc3)ccc21 | 8.37 |
| Cn1c(CNc2ccc(C(=N)N)cc2)nc2cc(C(=O)N(CCC(=O)O)c3cc(F)cc(F)c3)ccc21 | 7.98 |
| CCn1c(CNc2ccc(C(=N)N)cc2F)nc2cc(C(=O)N(CCC(=O)O)c3cc(C)ccn3)ccc21 | 7.72 |
| CCCn1c(CNc2ccc(C(=N)N)cc2F)nc2cc(C(=O)N(CCC(=O)O)c3ccc(F)c(Cl)c3)ccc21 | 7.55 |
| CCn1c(CNc2ccc(C(=N)N)cc2)nc2cc(C(=O)N(CCC(=O)O)c3cccc(F)c3)ccc21 | 8.13 |
| CCn1c(CNc2ccc(C(=N)N)cc2)nc2cc(C(=O)N(CCC(=O)O)c3ccc(OC(F)(F)F)cc3)ccc21 | 6.93 |
| CCCCCn1c(CNc2ccc(C(=N)N)cc2F)nc2cc(C(=O)N(CCC(=O)O)c3ccc(F)c(Cl)c3)ccc21 | 6.76 |
| CCn1c(CNc2ccc(C(=N)N)cc2)nc2cc(C(=O)N(CCC(=O)O)c3ccc(F)c(Cl)c3)ccc21 | 8.05 |
| CCn1c(CNc2ccc(C(=N)N)cc2)nc2cc(C(=O)N(CCC(=O)O)c3ccc(C(F)(F)F)cc3)ccc21 | 6.70 |
| Cn1c(CNc2ccc(C(=N)N)cc2)nc2cc(C(=O)N(CCC(=O)O)c3ccc(F)c(Cl)c3)ccc21 | 8.08 |
| CCn1c(CNc2ccc(C(=N)N)cc2F)nc2cc(C(=O)N(CCC(=O)O)c3ccc(F)c(Cl)c3)ccc21 | 8.69 |

Target: T1, Prothrombin
Assay: Inhibition of human thrombin preincubated for 10 mins using Ac-FVR-AMC as substrate by […] assay
Details: read-out: IC50

| Structure (SMILES) | pIC50 |
| --- | --- |
| Cn1c(CNc2ccc(C(=N)N)cc2)nc2cc(C(=O)N(CCC(=O)O)c3ccc(F)c(F)c3)ccc21 | 8.40 |
| Cn1c(CNc2ccc(C(=N)N)cc2)nc2cc(C(=O)N(CCC(=O)O)c3ccccc3C(F)(F)F)ccc21 | 8.30 |
| CCCCCCOC(=O)NC(=N)c1ccc(NCc2nc3cc(C(=O)N(CCC(=O)OCC)c4ccccn4)ccc3n2C)cc1 [DABIGATRAN ETEXILATE] | 8.58 |

Same assay, conditions: read-out: pIC50 (converted)

| Structure (SMILES) | IC50 [µM] |
| --- | --- |
| Cn1c(CNc2ccc(C(=N)N)cc2)nc2cc(C(=O)N(CCC(=O)O)c3ccc(F)c(F)c3)ccc21 | 0.00398 |
| Cn1c(CNc2ccc(C(=N)N)cc2)nc2cc(C(=O)N(CCC(=O)O)c3ccccc3C(F)(F)F)ccc21 | 0.00501 |
| CCCCCCOC(=O)NC(=N)c1ccc(NCc2nc3cc(C(=O)N(CCC(=O)OCC)c4ccccn4)ccc3n2C)cc1 [DABIGATRAN ETEXILATE] | 0.00263 |
